In experiment [1] the test system is sensitive tuberculosis (H37Rv). Nature of the experiment: Anti-tubercle bacillus activity, liquid medium dilution MIC. Type of experiment: cell-based. The settings on record: for MIC: Mycobacterium tuberculosis, 168 h, alone, 7 days at 37° C., read-out: antibacterial activity (MIC) of β-lactam agent alone.
Experiment [2] deals with T1, TEM-1 (Escherichia coli, UniProt P62593).
T1 construct: AmpC, TEM-1, KPC-2 or OXA-2 domain excluding signal peptide was amplified with PCR; made in house; host or cells: Escherichia coli BL21 (DE3), pET-28b(+)
Nature of the experiment: β-Lactamase inhibitory activity (nitrocefin hydrolysis), TEM-1. In kind it is biochemical. The settings on record: TEM-1 0.1 nM, 100 μM nitrocefin, pre-incubation 30° C. 10 minutes. The essentials:
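Scored as letter classes from <0.1 μM (A) through ≥10 μM (E). Nitrocefin breakdown (100 μM final) by E. coli-expressed, signal-peptide-free TEM-1 was followed at 492 nm after 20 min at 30° C. The buffer was 50 mM phosphate pH 7.0, 10 μg/mL BSA, 2.5% DMSO.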

Experiment [3] deals with T2, OXA-2 (Escherichia coli, UniProt P0A1V9).
T2 construct: AmpC, TEM-1, KPC-2 or OXA-2 domain excluding signal peptide was amplified with PCR; made in house; host or cells: Escherichia coli BL21 (DE3), pET-28b(+)
Nature of the experiment: biochemical. Further details: species or system P. aeruginosa.

The target of experiment [4] is T3, KPC-2 (Klebsiella pneumoniae, UniProt Q9F663).
T3 construct: AmpC, TEM-1, KPC-2 or OXA-2 domain excluding signal peptide was amplified with PCR; made in house; host or cells: Escherichia coli BL21 (DE3), pET-28b(+)
Nature of the experiment: β-Lactamase inhibitory activity (nitrocefin hydrolysis), KPC-2. In kind it is biochemical. The settings on record: KPC-2 0.5 nM, 100 μM nitrocefin, pre-incubation 30° C. 10 minutes.

Experiment [5] addresses T4, AmpC (Pseudomonas aeruginosa, UniProt P24735).
T4 construct: AmpC, TEM-1, KPC-2 or OXA-2 domain excluding signal peptide was amplified with PCR; made in house; host or cells: Escherichia coli BL21 (DE3), pET-28b(+)
Nature of the experiment: biochemical.

The test system of experiment [6] is K. pneumoniae ATCCBAA-1705. Nature of the experiment: microbe, parasite or virus in culture. The following applies: Klebsiella pneumoniae, ATCCBAA1705, read-out: antibacterial activity (MIC) of PIPC alone.
The subject of experiment [7] is P. aeruginosa ATCCBAA-47CR. Nature of the experiment: microbe, parasite or virus in culture. In kind it is cell-based. The settings on record: Pseudomonas aeruginosa, ATCCBAA47CR; alone; AmpC constitutively-expressing P. aeruginosa; agar plate dilution; read-out: antibacterial activity (MIC) of PIPC alone.
The subject of experiment [8] is E. coli MSC19503. Nature of the experiment: microbe, parasite or virus in culture. In kind it is cell-based. The settings on record: Escherichia coli, alone, CTX-M-15 (ESBL) and OXA-1 producing E. coli, agar plate dilution, read-out: antibacterial activity (MIC) of PIPC alone.

Values after ≈ are worked out from the molar mass of the structure shown. Like-named read-outs stand apart in the source and are kept apart here.

T2 sequence (P0A1V9 22-275): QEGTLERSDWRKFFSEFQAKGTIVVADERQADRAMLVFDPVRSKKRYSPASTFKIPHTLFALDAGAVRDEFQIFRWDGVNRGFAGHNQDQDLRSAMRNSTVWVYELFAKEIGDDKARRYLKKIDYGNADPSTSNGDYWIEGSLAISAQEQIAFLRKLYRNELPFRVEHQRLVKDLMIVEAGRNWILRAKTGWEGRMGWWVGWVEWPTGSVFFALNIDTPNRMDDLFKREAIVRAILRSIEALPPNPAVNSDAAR
T3 sequence (Q9F663 25-293, looked up): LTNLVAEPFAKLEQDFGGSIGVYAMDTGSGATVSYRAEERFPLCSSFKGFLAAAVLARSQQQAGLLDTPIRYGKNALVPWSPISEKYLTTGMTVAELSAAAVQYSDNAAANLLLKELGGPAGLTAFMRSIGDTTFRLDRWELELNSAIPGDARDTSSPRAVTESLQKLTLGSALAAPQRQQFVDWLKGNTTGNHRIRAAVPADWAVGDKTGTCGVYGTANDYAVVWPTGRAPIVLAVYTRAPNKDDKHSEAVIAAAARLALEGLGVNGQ
T1 sequence (P62593 24-286 limits assumed): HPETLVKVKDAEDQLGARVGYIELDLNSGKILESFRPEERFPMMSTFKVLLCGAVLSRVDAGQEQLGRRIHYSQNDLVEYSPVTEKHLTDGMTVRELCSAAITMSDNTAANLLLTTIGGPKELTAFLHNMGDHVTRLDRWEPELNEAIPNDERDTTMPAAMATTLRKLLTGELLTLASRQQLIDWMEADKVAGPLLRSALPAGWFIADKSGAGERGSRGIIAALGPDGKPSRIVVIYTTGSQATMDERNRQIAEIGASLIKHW
T4 sequence (P24735 27-397): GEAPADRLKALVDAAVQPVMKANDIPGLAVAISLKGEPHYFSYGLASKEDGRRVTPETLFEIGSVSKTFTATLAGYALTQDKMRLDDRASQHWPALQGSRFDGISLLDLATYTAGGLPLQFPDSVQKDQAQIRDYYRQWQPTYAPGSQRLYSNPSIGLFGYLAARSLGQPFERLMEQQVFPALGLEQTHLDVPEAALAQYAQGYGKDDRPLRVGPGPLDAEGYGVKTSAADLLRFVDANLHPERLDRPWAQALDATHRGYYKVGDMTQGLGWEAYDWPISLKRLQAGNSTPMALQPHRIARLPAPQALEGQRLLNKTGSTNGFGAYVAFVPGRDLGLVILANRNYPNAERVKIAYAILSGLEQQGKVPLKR

For the compound `CC1(C)S[C@@H]2[C@H](NC(=O)[C@H](N)c3ccccc3)C(=O)N2[C@H]1C(=O)O` [ABPC, ampicillin, reference compound], the MIC in experiment [1] is 16 mg/L (≈ 45.8 µM).

For `CC1(C)S[C@@H]2[C@H](NC(=O)[C@H](N)c3ccc(O)cc3)C(=O)N2[C@H]1C(=O)O` [AMPC, amoxicillin, reference compound], the MIC in experiment [1] was determined as 16 mg/L (≈ 43.8 µM).

With `C[C@@H](O)[C@H]1C(=O)N2C(C(=O)O)=C(S[C@@H]3CN[C@H](C(=O)N(C)C)C3)[C@H](C)[C@H]12` [MEPM, meropenem, reference compound], in experiment [1], the MIC turned out to be 1 mg/L (≈ 2.61 µM).

Take `C[C@@H](O)[C@H]1C(=O)N2C(C(=O)[O-])=C(SC3Cn4cnc[n+]4C3)[C@H](C)[C@H]12` (stereo partly drawn) [BIPM, biapenem, reference compound]: the MIC in experiment [1] is 1 mg/L (≈ 2.85 µM).

Consider `C[C@@H](O)[C@H]1C(=O)N2C(C(=O)O)=C(SC3CN(C4=NCCS4)C3)[C@H](C)[C@H]12` [TBPM, tebipenem, reference compound], for which the MIC in experiment [1] came out at 0.5 mg/L (≈ 1.3 µM).

Regarding `NCCONC(=O)[C@@H]1CC[C@@H]2CN1C(=O)N2OS(=O)(=O)O` [Example 59, (2S,5R)—N-(2-Aminoethoxy)-7-oxo-6-(sulfooxy)-1,6-diazabicyclo[3.2.1]octane-2-carboxamide], the “antibacterial activity (MIC) of ABPC in combinatorial use” value in experiment [1] (ABPC + 4 μg/mL compound) came out at 2 mg/L. Further, the “antibacterial activity (MIC) of AMPC in combinatorial use” value in experiment [1] (AMPC + 4 μg/mL compound) stood at 2 mg/L. Besides, the “antibacterial activity (MIC) of BIPM in combinatorial use” value in experiment [1] (BIPM + 4 μg/mL compound) worked out at 1 mg/L. Further, the “antibacterial activity (MIC) of MEPM in combinatorial use” value in experiment [1] (MEPM + 4 μg/mL compound) turned out to be 0.5 mg/L. For the same compound, in experiment [1] (TBPM + 4 μg/mL compound), the “antibacterial activity (MIC) of TBPM in combinatorial use” value is 0.25 mg/L. Besides, the IC50 – broadly, the concentration that inhibits the measured activity by half – was under 0.1 µM in experiment [2]; 1 to 3 µM in experiment [3] (OXA-2 2 nM, 100 μM nitrocefin, pre-incubation 30° C. 10 minutes, read-out: β-Lactamase inhibitory activity OXA-2 (IC50)); 0.1 to 1 µM in experiment [4]; 0.1 to 1 µM in experiment [5].

On to `CCN1CCN(C(=O)N[C@@H](C(=O)N[C@@H]2C(=O)N3[C@@H]2SC(C)(C)[C@@H]3C(=O)O)c2ccccc2)C(=O)C1=O` [PIPC, piperacillin], for which the MIC in experiment [6] was over 128 mg/L; in experiment [7] it was 64 mg/L (≈ 124 µM); in experiment [8], over 128 mg/L.

Take `COC(=O)NNC(=O)[C@@H]1CC[C@@H]2CN1C(=O)N2OS(=O)(=O)O` [Example 51, Sodium methyl 2-{[(2S,5R)-7-oxo-6-(sulfooxy)-1,6-diazabicyclo[3.2.1]oct-2-yl]carbonyl}hydrazinecarboxylate]: the IC50 in experiment [2] is under 0.1 µM; in experiment [3], 1 to 3 µM; in experiment [4] it was 0.1 to 1 µM; in experiment [5], 0.1 to 1 µM.

The record behind these values is patent US10556905B2, “Processes for preparing a diazabicyclooctane compound” (priority 2012, dated 2020).
